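Where inhibition never reached the appropriate level, the endpoint shown equals the highest concentration tested. Otherwise, values were interpolated linearly from a five-concentration, 48-hour dose response in 96-well plates. The concentration for 50% growth inhibition is given as GI50.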 Calls of active or inactive are those of the source. No stated cut-off is given here; in the data, active = GI50 up to about 1.1 µM and inactive = higher.
Columns and labels:
Assay in all cases: growth of human tumour cells (NCI), 48 h
[1] = test system: Hs-578T
[2] = test system: K562
[3] = test system: UACC-62
[4] = test system: BT-549
[5] = test system: SN12C
[6] = test system: SK-MEL-5
[7] = test system: HCT-15
[8] = test system: TK-10
[9] = test system: RXF 393
[10] = test system: HCT-116
[11] = test system: CAKI-1
[12] = test system: MDA-MB-231
[13] = test system: MOLT-4
[14] = test system: SW-620
[15] = test system: OVCAR-3
[16] = test system: NCI/ADR-RES
[17] = test system: ACHN
[18] = test system: NCI-H460
[19] = test system: KM12
[20] = test system: HCC 2998

| SMILES | GI50 [1] | GI50 [2] | GI50 [3] | GI50 [4] | GI50 [5] | GI50 [6] | GI50 [7] | GI50 [8] | GI50 [9] | GI50 [10] | GI50 [11] | GI50 [12] | GI50 [13] | GI50 [14] | GI50 [15] | GI50 [16] | GI50 [17] | GI50 [18] | GI50 [19] | GI50 [20] |
| --- | --- | --- | --- | --- | --- | --- | --- | --- | --- | --- | --- | --- | --- | --- | --- | --- | --- | --- | --- | --- |
| O=C(O)C(=Cc1ccnc2ccccc12)C(=O)O | > 100 µM (inactive) | > 100 µM (inactive) | > 100 µM (inactive) | > 100 µM (inactive) | > 100 µM (inactive) | > 100 µM (inactive) | > 100 µM | > 100 µM (inactive) | > 100 µM (inactive) | > 100 µM (inactive) | > 100 µM (inactive) | > 100 µM (inactive) | > 100 µM (inactive) | > 100 µM (inactive) | > 100 µM (inactive) | > 100 µM (inactive) | > 100 µM (inactive) | > 100 µM (inactive) | > 100 µM (inactive) |  |
| COC(=O)C12Oc3ccc(-c4ccc5c(c4O)C(O)=C4C(=O)CC(C)C(O)C4(C(=O)OC)O5)c(O)c3C(O)=C1C(=O)CC(C)C2O (stereo not drawn) | 0.135 µM (active) | 0.0753 µM (active) | 0.0708 µM (active) | 0.262 µM (active) | 0.121 µM (active) | 0.0394 µM (active) | 0.216 µM | 0.231 µM (active) | 0.0877 µM (active) | 0.126 µM (active) | 0.346 µM (active) | 0.63 µM (active) | 0.0641 µM (active) | 0.0889 µM (active) | 0.0719 µM (active) | 0.485 µM (active) | 0.153 µM (active) | 0.0421 µM (active) | 0.0555 µM (active) |  |
| Nc1c(S(=O)(=O)O)cc(S(=O)(=O)O)c2ccc(/N=N/c3ccccc3)c(O)c12 | > 100 µM (inactive) | 43.3 µM (inactive) | > 100 µM (inactive) | > 100 µM (inactive) | > 100 µM (inactive) | > 100 µM (inactive) | > 100 µM | > 100 µM (inactive) | > 100 µM (inactive) | > 100 µM (inactive) | > 100 µM (inactive) | > 100 µM (inactive) |  | > 100 µM (inactive) | > 100 µM (inactive) | > 100 µM (inactive) | > 100 µM (inactive) | > 100 µM (inactive) | > 100 µM (inactive) |  |
| CCOC(=O)c1ccc(N2C(=S)N(C(=O)c3ccccc3)C(=N/c3ccccc3)/C2=N\c2ccccc2)cc1 | 58.3 µM (inactive) | > 100 µM (inactive) | 29.6 µM (inactive) | 30.5 µM (inactive) | > 100 µM (inactive) | 50 µM (inactive) | > 100 µM | 62.1 µM (inactive) | > 10 µM (inactive) |  | 27.6 µM (inactive) |  | > 10 µM (inactive) | > 100 µM (inactive) | 25.3 µM (inactive) | > 100 µM (inactive) | 37.8 µM (inactive) | > 100 µM (inactive) | > 100 µM (inactive) | > 100 µM (inactive) |
| O=c1[nH]c2ccccc2c(=O)n1/N=C/c1ccc(O)cc1 | 31.7 µM (inactive) | > 100 µM (inactive) | 42.4 µM (inactive) | 64.3 µM (inactive) | 55.2 µM (inactive) | > 100 µM (inactive) | > 100 µM | > 100 µM (inactive) |  | > 100 µM (inactive) | > 100 µM (inactive) | 45.5 µM (inactive) | > 100 µM (inactive) | > 100 µM (inactive) | > 100 µM (inactive) | 50.9 µM (inactive) | > 100 µM (inactive) | > 100 µM (inactive) | > 100 µM (inactive) |  |
| COc1ccc(/C=N/c2ccc(-c3nc4ccccc4s3)cc2)cc1OC | 24.5 µM (inactive) | 27.4 µM (inactive) | 20 µM (inactive) | 30.5 µM (inactive) | 25.7 µM (inactive) | 16.1 µM (inactive) | 31.8 µM | 28.6 µM (inactive) | 20.3 µM (inactive) | 29.1 µM (inactive) | 31.3 µM (inactive) |  | 17.9 µM (inactive) | 34.8 µM (inactive) | 13.4 µM (inactive) | 27.5 µM (inactive) | 22.5 µM (inactive) | 21.8 µM (inactive) | 26.4 µM (inactive) | 20.2 µM (inactive) |
| O=C(O)CC(NC(=O)CP(=O)(O)O)C(=O)O (stereo not drawn) | 3640 µM (inactive) | 94.8 µM (inactive) | 79.6 µM (inactive) | 3210 µM (inactive) | 724 µM (inactive) | 101 µM (inactive) | 146 µM | 1420 µM (inactive) | 249 µM (inactive) | 21.5 µM (inactive) |  | 1360 µM (inactive) | 238 µM (inactive) | 285 µM (inactive) | 910 µM (inactive) | 1020 µM (inactive) | 711 µM (inactive) | 25.4 µM (inactive) | 149 µM (inactive) | 7930 µM (inactive) |
| CCCCc1c2c(nc3c1CCC/C3=C\c1ccccc1)C(=O)C(CN(C)C)CC2 (stereo not drawn) | 17.9 µM (inactive) | 6.89 µM (inactive) | 20.3 µM (inactive) | 4.32 µM (inactive) | 20.1 µM (inactive) | 16.9 µM (inactive) | 8.97 µM | 15.7 µM (inactive) | 16.3 µM (inactive) | 16 µM (inactive) |  | 11.1 µM (inactive) | 2.86 µM (inactive) | 10.4 µM (inactive) | 19.5 µM (inactive) | 29.3 µM (inactive) | 15.9 µM (inactive) | 17.3 µM (inactive) | 16.9 µM (inactive) | 28 µM (inactive) |
| Cc1ccc(S(=O)(=O)N[C@@H](Cc2ccccc2)C(=O)CCl)cc1 [TPCK] | 1.82 µM (inactive) | 9.75 µM (inactive) | 13.6 µM (inactive) | 11.7 µM (inactive) | 12.7 µM (inactive) | 12.2 µM (inactive) | 16 µM | 17.2 µM (inactive) | 1.38 µM (inactive) | 11.6 µM (inactive) |  | 14.2 µM (inactive) |  | 11.5 µM (inactive) | 15.8 µM (inactive) | 19.9 µM (inactive) | 16.5 µM (inactive) | 15.5 µM (inactive) |  | 13.9 µM (inactive) |
| CNc1ccc(C)cc1S(=O)(=O)c1ccccc1[N+](=O)[O-] | 55.7 µM (inactive) | 26.7 µM (inactive) | 22.1 µM (inactive) | 46.6 µM (inactive) | 86.7 µM (inactive) | 18.2 µM (inactive) | 41.3 µM | 99.3 µM (inactive) | > 100 µM (inactive) | 48.4 µM (inactive) |  | > 100 µM (inactive) | 18.4 µM (inactive) | 69.8 µM (inactive) | 43.2 µM (inactive) | 42.3 µM (inactive) | 30.8 µM (inactive) | 51.1 µM (inactive) | 59.4 µM (inactive) | 92.5 µM (inactive) |
| O=C1c2c(Br)sc(Br)c2[C@@H](Cl)[C@H]1Cl | 36.6 µM (inactive) | 10 µM (inactive) | 18.2 µM (inactive) | 20.6 µM (inactive) | 8.87 µM (inactive) | 16.1 µM (inactive) | 19.7 µM | 29 µM (inactive) | 15.5 µM (inactive) | 22.8 µM (inactive) | 20.7 µM (inactive) | 19.5 µM (inactive) | 14.9 µM (inactive) | 5.08 µM (inactive) | 14.3 µM (inactive) | 33.1 µM (inactive) | 19.2 µM (inactive) | 19.4 µM (inactive) | 17.2 µM (inactive) |  |
| O=C1N[C@@H]2O[C@H](CNC(=O)c3cc(Br)c[nH]3)C[C@]2(O)N1.O=C1N[C@H]2O[C@H](CNC(=O)c3cc(Br)c[nH]3)C[C@@]2(O)N1 | > 100 µM (inactive) | > 100 µM (inactive) | > 100 µM (inactive) | > 100 µM (inactive) | > 100 µM (inactive) | > 100 µM (inactive) | > 100 µM | > 100 µM (inactive) |  | > 100 µM (inactive) | > 100 µM (inactive) | > 100 µM (inactive) | > 100 µM (inactive) | > 100 µM (inactive) | > 100 µM (inactive) | > 100 µM (inactive) | > 100 µM (inactive) | > 100 µM (inactive) | > 100 µM (inactive) |  |
| CCCCC1Cc2cc(OC)ccc2-c2nc3cc(OC)ccc3n21.CCCCC1Cc2cc(OC)ccc2-c2nc3ccc(OC)cc3n21 (stereo not drawn) | 12.7 µM (inactive) | 10.5 µM (inactive) | 12.9 µM (inactive) | 18.8 µM (inactive) | 14.7 µM (inactive) | 14.3 µM (inactive) | 3.37 µM | 18.7 µM (inactive) | 17 µM (inactive) | 10.9 µM (inactive) | 15.6 µM (inactive) | 13.1 µM (inactive) | 10.2 µM (inactive) | 14.5 µM (inactive) | 15 µM (inactive) | 13.2 µM (inactive) | 15.2 µM (inactive) | 15.4 µM (inactive) | 18.7 µM (inactive) |  |
| COc1cc2cc(C(=O)N3CC(CCl)c4ccc([N+](=O)[O-])cc43)[nH]c2c(OC)c1OC (stereo not drawn) | 74.5 µM (inactive) | > 100 µM (inactive) | > 100 µM (inactive) | > 100 µM (inactive) | > 100 µM (inactive) | > 100 µM (inactive) | > 100 µM | > 100 µM (inactive) | > 100 µM (inactive) | > 100 µM (inactive) | > 100 µM (inactive) | > 100 µM (inactive) | > 100 µM (inactive) | > 100 µM (inactive) | > 100 µM (inactive) | > 100 µM (inactive) | > 100 µM (inactive) |  | > 100 µM (inactive) | > 100 µM (inactive) |
| O=C(/C=C/C=C/c1ccccc1)c1ccc2c(c1)CCCC2 | 4.84 µM (inactive) | 30.9 µM (inactive) | > 100 µM (inactive) | 26 µM (inactive) | 32.5 µM (inactive) | 37.2 µM (inactive) | 36 µM | 73.6 µM (inactive) |  | 31.6 µM (inactive) | 74.3 µM (inactive) | 96.6 µM (inactive) | 25.9 µM (inactive) | 45.8 µM (inactive) | 35.6 µM (inactive) | 25.8 µM (inactive) | 70.8 µM (inactive) |  | 28.8 µM (inactive) | 23 µM (inactive) |
